Experimental data as given in publication PMC3817851, “Enzyme activity effects of N-terminal His-tag attached to catalytic sub-unit of phosphoinositide-3-kinase” (Bioscience Reports, 2013).
pIC50: −log10 of the molar value. Blank lines part the entries; values can stand above or below the compound they belong to.

How the values were obtained:
Format in all cases: biochemical
p110γ (PI 3-Kγ) [1] = target: T1, p110γ (PI 3-Kγ) (Homo sapiens, UniProt P48736); assay: HTRF lipid kinase assay
T1 construct: gene PIK3CG; catalytic subunit only, N-His6-rTEV tag (tag removed by rTEV); baculovirus/Sf9
T1 sequence (P48736 whole entry): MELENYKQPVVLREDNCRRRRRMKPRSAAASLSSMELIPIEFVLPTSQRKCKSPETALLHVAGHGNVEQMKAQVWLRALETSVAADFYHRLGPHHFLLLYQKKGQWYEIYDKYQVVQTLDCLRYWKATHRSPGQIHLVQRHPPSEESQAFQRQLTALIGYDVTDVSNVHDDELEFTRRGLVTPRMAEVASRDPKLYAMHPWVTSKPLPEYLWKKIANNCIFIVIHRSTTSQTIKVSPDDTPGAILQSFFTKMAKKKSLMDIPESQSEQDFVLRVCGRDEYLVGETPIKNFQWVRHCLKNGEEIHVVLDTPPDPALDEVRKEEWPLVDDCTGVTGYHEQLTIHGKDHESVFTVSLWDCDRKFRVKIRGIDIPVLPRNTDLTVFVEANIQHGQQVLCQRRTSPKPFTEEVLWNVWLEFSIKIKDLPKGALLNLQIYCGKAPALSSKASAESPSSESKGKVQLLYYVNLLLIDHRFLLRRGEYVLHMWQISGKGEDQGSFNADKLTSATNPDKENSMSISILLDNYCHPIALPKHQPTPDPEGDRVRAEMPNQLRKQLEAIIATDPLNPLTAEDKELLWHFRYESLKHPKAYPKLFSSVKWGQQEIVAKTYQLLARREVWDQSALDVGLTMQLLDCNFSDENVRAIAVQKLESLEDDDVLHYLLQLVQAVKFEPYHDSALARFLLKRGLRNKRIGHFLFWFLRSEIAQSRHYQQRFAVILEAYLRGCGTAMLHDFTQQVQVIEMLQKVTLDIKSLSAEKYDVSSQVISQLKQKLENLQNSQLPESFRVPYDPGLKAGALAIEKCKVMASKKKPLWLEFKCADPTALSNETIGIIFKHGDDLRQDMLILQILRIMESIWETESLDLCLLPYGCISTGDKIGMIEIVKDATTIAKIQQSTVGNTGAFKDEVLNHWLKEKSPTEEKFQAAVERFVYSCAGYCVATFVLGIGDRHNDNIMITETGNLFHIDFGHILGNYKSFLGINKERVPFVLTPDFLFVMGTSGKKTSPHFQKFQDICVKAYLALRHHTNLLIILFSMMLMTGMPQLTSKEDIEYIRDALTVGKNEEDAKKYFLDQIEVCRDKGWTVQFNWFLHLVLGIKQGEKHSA

p110γ (PI 3-Kγ) [2] = target: T1, p110γ (PI 3-Kγ); assay: HTRF kinetics, […] ATP; details: PI([…])P2 co-substrate, His-tag removed
[3] = target: T2, p110δ (PI 3-Kδ, p110δ/p85α) (Homo sapiens, UniProt O00329); assay: HTRF kinetics, […] ATP; details: PI([…])P2 co-substrate, His-tag removed
T2 construct: gene PIK3CD; full-length p110δ with N-His6-rTEV tag (tag removed by rTEV) co-expressed with full-length p85α; baculovirus/Sf9; IMAC, MonoQ; heterodimer; with Phosphatidylinositol 3-kinase regulatory subunit alpha
T2 sequence (O00329 whole entry): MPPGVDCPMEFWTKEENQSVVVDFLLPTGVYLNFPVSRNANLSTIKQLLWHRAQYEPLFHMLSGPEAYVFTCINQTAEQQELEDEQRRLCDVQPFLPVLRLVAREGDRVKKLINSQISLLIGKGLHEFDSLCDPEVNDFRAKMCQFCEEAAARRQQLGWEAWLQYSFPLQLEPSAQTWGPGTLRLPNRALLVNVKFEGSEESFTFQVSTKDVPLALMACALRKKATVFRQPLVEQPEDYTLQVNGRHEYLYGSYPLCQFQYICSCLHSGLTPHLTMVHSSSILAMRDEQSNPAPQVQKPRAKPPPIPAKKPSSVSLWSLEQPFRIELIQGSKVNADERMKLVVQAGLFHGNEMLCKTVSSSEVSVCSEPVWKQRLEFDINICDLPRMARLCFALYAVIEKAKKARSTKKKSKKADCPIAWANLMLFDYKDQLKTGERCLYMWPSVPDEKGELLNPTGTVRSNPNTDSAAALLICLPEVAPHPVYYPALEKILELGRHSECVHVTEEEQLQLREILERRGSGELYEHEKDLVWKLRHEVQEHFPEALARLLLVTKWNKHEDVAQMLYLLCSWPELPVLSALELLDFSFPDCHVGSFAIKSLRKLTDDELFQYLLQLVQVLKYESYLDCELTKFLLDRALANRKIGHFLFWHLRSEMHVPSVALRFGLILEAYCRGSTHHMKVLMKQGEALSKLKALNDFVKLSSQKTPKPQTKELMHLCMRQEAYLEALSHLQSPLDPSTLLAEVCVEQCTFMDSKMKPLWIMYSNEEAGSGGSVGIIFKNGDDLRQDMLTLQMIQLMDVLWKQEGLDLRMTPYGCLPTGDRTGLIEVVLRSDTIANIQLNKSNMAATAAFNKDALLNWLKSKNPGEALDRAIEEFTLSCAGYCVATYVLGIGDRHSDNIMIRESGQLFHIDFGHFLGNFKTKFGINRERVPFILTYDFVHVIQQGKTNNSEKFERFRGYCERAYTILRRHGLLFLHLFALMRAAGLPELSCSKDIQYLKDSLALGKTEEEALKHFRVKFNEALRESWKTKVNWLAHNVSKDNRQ
T2 sequence (P27986 2-724 partner): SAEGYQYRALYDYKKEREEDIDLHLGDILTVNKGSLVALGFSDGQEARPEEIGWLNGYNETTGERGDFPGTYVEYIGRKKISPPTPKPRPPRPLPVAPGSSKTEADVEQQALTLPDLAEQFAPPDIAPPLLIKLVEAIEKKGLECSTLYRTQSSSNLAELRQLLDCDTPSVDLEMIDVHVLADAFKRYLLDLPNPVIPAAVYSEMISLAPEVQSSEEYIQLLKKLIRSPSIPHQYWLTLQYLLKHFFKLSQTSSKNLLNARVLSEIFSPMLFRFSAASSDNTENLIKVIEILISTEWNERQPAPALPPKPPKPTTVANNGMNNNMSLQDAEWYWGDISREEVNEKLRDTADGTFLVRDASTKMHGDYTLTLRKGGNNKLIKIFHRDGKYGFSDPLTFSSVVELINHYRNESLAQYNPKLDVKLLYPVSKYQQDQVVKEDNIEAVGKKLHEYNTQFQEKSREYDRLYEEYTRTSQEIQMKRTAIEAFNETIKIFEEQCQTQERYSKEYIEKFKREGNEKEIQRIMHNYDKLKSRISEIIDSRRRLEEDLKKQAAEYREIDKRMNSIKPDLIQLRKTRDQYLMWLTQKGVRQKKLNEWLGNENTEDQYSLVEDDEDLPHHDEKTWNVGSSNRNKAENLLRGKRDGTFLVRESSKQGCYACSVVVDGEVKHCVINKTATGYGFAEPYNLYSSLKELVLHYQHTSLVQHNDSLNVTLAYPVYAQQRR

[4] = target: T3, p110α (PI 3-Kα, p110α/p85α) (Homo sapiens, UniProt P42336); assay: HTRF kinetics, […] ATP; details: PI([…])P2 co-substrate, His-tag removed
T3 construct: gene PIK3CA; full-length p110α with N-His6-rTEV tag (tag removed by rTEV) co-expressed with full-length p85α; baculovirus/Sf9; IMAC, MonoQ; heterodimer; with Phosphatidylinositol 3-kinase regulatory subunit alpha
T3 sequence (P42336 whole entry): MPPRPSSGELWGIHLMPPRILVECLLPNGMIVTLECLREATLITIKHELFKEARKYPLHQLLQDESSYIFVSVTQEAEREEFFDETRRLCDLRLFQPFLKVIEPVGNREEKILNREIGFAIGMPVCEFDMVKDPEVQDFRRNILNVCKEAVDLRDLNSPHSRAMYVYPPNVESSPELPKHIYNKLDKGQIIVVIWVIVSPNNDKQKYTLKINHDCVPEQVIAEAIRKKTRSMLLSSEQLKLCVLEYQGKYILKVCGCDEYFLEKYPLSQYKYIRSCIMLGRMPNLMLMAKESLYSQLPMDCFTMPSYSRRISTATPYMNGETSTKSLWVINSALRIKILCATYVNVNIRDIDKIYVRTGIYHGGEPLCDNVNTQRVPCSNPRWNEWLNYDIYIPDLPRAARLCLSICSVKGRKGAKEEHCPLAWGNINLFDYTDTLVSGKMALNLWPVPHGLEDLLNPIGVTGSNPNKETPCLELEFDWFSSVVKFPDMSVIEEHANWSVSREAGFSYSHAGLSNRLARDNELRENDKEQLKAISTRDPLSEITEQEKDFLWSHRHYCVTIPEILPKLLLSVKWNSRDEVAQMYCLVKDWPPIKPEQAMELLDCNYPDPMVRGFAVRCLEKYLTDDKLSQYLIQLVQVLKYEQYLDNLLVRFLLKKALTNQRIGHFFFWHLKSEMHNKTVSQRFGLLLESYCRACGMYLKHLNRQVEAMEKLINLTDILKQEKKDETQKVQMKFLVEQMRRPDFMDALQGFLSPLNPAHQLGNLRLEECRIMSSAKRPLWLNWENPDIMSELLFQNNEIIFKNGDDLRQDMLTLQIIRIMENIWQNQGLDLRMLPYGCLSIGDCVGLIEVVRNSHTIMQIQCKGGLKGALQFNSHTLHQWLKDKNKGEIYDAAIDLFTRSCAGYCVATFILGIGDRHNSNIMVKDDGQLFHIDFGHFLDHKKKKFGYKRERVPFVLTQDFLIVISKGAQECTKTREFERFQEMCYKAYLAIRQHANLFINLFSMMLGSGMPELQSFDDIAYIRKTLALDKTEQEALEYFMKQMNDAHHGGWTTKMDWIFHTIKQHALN
T3 sequence (P27986 2-724 partner): as the sequence (P27986 2-724 partner) above

[5] = target: T4, p110β (PI 3-Kβ, p110β/p85α) (Homo sapiens, UniProt P42338); assay: HTRF kinetics, […] ATP; details: PI([…])P2 co-substrate, His-tag removed
T4 construct: gene PIK3CB; full-length p110β with N-His6-rTEV tag (tag removed by rTEV) co-expressed with full-length p85α; baculovirus/Sf9; IMAC, MonoQ; heterodimer; with Phosphatidylinositol 3-kinase regulatory subunit alpha
T4 sequence (P42338 whole entry): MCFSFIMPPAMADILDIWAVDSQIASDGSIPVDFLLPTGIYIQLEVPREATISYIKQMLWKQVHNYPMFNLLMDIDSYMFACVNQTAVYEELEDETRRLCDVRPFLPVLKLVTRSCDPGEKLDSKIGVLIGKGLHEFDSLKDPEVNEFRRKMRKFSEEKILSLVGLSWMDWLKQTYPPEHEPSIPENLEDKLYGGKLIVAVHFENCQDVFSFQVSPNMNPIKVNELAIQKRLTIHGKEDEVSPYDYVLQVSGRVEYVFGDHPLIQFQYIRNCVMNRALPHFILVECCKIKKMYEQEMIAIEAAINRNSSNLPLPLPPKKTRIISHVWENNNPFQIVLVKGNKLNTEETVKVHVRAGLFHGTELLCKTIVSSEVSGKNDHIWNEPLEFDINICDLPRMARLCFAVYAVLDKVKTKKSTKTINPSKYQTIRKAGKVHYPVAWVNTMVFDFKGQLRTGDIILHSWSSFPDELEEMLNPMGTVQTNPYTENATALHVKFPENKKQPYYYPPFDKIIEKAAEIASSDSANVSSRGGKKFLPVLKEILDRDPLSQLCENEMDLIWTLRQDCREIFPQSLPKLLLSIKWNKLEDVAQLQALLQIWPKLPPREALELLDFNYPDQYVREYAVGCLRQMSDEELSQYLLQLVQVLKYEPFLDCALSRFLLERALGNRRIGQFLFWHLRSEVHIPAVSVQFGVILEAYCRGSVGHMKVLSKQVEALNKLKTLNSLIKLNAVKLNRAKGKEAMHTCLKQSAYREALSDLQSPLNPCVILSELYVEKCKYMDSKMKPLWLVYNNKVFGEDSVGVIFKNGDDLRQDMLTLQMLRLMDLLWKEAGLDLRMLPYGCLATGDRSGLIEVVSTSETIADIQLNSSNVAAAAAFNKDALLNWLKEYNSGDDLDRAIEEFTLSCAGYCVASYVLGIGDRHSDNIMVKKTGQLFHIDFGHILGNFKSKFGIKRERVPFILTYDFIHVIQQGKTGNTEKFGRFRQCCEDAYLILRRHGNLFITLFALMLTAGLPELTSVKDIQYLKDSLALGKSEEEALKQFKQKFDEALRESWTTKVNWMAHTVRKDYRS
T4 sequence (P27986 2-724 partner): as the sequence (P27986 2-724 partner) above

[6] = target: T4, p110β (PI 3-Kβ, p110β/p85α); assay: HTRF lipid kinase assay; details: […] ATP, PI([…])P2 substrate, His-tag removed

pIC50 (p110γ (PI 3-Kγ) [1]): 7.59
SMILES: Cc1ccc([N+](=O)[O-])cc1S(=O)(=O)N(C)/N=C/c1cnc2ccc(Br)cn12 [PIK-75]

Km (p110γ (PI 3-Kγ) [2]): (B) Km for ATP in μM
Km [3]: (B) Km for ATP in μM
Km [4]: (B) Km for ATP in μM
Km [5]: (B) Km for ATP in μM
SMILES: Nc1ncnc2c1ncn2[C@@H]1O[C@H](COP(=O)(O)OP(=O)(O)OP(=O)(O)O)[C@@H](O)[C@H]1O [ATP]

pIC50 [6]: 7.85
SMILES: Cc1cc([C@H](C)Nc2ccccc2)c2oc(N3CCOCC3)cc(=O)c2c1 [PIK108]
